Assay results as given in US3956274A, “New compound 6'-deoxy-'-substituted or unsubstituted amino-lividomycins and the production thereof” (Zaidan Hojin Biseibutsu Kagaku Kenkyu Kai, priority 1973, dated 1976).
In brackets after ≈: the same amount, converted by molar mass.

Tests used:
[1] = tested on: Escherichia coli K-12 JR 66/W 677; assay: MIC, standard serial dilution method; type: cell-based; settings: E. coli K-12 JR 66/W 677, drug-resistant strain of patient-origin; nutrient agar, 37°C, 18 hours
Method: (§1) The minimum inhibitory concentrations (mcg/ml) of 6'-amino-6'-deoxylividomycin B, 6'-deoxy-6'-methylaminolividomycin B and 6'-deoxy-6'-(2-hydroxyethylamino) lividomycin B against various microorganisms were determined according to a standard serial dilution method using nutrient agar incubation medium at 37°C, the estimation being effected after 18 hours incubation except for Mycobacterium smegmalis ATCC 607, in which the estimation being effected after 48 hours incubation. The minimum inhibitory concentrations (mcg/ml) of neomycin and lividomycin B were also determined in the same manner they also for comparison.
(§2) In the above table, the mark * denotes the strain is a drug-resistant
(§3) strain of patient-origin.

[2] = tested on: Escherichia coli K-12 LA 290 R 55; assay: MIC, standard serial dilution method; type: cell-based; settings: E. coli K-12 LA 290 R 55, drug-resistant strain of patient-origin; nutrient agar, 37°C, 18 hours
Method: as §1, §2, §3

[3] = tested on: Pseudomonas aeruginosa GN 315; assay: MIC, standard serial dilution method; type: cell-based; settings: P. aeruginosa GN 315, drug-resistant strain of patient-origin; nutrient agar, 37°C, 18 hours
Method: as §1, §2, §3

[4] = tested on: Escherichia coli K-12 ML 1629; assay: MIC, standard serial dilution method; type: cell-based; settings: E. coli K-12 ML 1629, drug-resistant strain of patient-origin; nutrient agar, 37°C, 18 hours
Method: as §1, §2, §3

[5] = tested on: Klebsiella pneumoniae PCI 602; assay: MIC, standard serial dilution method; type: cell-based; settings: K. pneumoniae PCI 602; nutrient agar, 37°C, 18 hours
Method: as §1

[6] = tested on: Escherichia coli K-12 ML 1410; assay: MIC, standard serial dilution method; type: cell-based; settings: E. coli K-12 ML 1410; nutrient agar, 37°C, 18 hours
Method: as §1

[7] = tested on: Escherichia coli K-12 W 677; assay: MIC, standard serial dilution method; type: cell-based; settings: E. coli K-12 W 677; nutrient agar, 37°C, 18 hours
Method: as §1

[8] = tested on: Staphylococcus aureus FDA 209 P; assay: MIC, standard serial dilution method; type: cell-based; settings: S. aureus FDA 209 P; nutrient agar, 37°C, 18 hours
Method: as §1

[9] = tested on: Pseudomonas aeruginosa A 3; assay: MIC, standard serial dilution method; type: cell-based; settings: P. aeruginosa A 3; nutrient agar, 37°C, 18 hours
Method: as §1

Escherichia coli NIHJ = assay: MIC, standard serial dilution method; type: cell-based; settings: E. coli NIHJ; nutrient agar, 37°C, 18 hours
Method: as §1

[10] = tested on: Pseudomonas aeruginosa TI-13-1; assay: MIC, standard serial dilution method; type: cell-based; settings: P. aeruginosa TI-13-1; nutrient agar, 37°C, 18 hours
Method: as §1

[11] = tested on: Escherichia coli K-12 LA 290 R 64; assay: MIC, standard serial dilution method; type: cell-based; settings: E. coli K-12 LA 290 R 64; nutrient agar, 37°C, 18 hours
Method: as §1

[12] = tested on: Bacillus subtilis NRRL B-558; assay: MIC, standard serial dilution method; type: cell-based; settings: B. subtilis NRRL B-558; nutrient agar, 37°C, 18 hours
Method: as §1

[13] = tested on: Escherichia coli K-12 J 5 R 11-2; assay: MIC, standard serial dilution method; type: cell-based; settings: E. coli K-12 J 5 R 11-2; nutrient agar, 37°C, 18 hours
Method: as §1

[14] = tested on: Escherichia coli K-12 ML 1410 R 81; assay: MIC, standard serial dilution method; type: cell-based; settings: E. coli K-12 ML 1410 R 81; nutrient agar, 37°C, 18 hours
Method: as §1

Escherichia coli K-12 = assay: MIC, standard serial dilution method; type: cell-based; settings: E. coli K-12; nutrient agar, 37°C, 18 hours
Method: as §1

[15] = tested on: Escherichia coli K-12 LA 290 R 56; assay: MIC, standard serial dilution method; type: cell-based; settings: E. coli K-12 LA 290 R 56; nutrient agar, 37°C, 18 hours
Method: as §1

[16] = tested on: Escherichia coli K-12 ML 1630; assay: MIC, standard serial dilution method; type: cell-based; settings: E. coli K-12 ML 1630; nutrient agar, 37°C, 18 hours
Method: as §1

[17] = tested on: Pseudomonas aeruginosa No.12; assay: MIC, standard serial dilution method; type: cell-based; settings: P. aeruginosa No.12; nutrient agar, 37°C, 18 hours
Method: as §1

Salmonella typhosa T-63 = assay: MIC, standard serial dilution method; type: cell-based; settings: Salmonella typhosa T-63; nutrient agar, 37°C, 18 hours
Method: as §1

[18] = tested on: Klebsiella pneumoniae type 22 No. 3038; assay: MIC, standard serial dilution method; type: cell-based; settings: K. pneumoniae type 22 No. 3038; nutrient agar, 37°C, 18 hours
Method: as §1

[19] = tested on: Mycobacterium smegmatis ATCC 607; assay: MIC, standard serial dilution method; type: cell-based; settings: nutrient agar, 37°C, 48 hours
Method: as §1

Proteus rettgeri GN 466 = assay: MIC, standard serial dilution method; type: cell-based; settings: Proteus rettgeri GN 466; nutrient agar, 37°C, 18 hours
Method: as §1

Sarcina lutea PCI 1001 = assay: MIC, standard serial dilution method; type: cell-based; settings: nutrient agar, 37°C, 18 hours
Method: as §1

[20] = tested on: Escherichia coli K-12 R-5; assay: MIC, standard serial dilution method; type: cell-based; settings: E. coli K-12 R-5; nutrient agar, 37°C, 18 hours
Method: as §1

Proteus rettgeri GN 311 = assay: MIC, standard serial dilution method; type: cell-based; settings: nutrient agar, 37°C, 18 hours
Method: as §1

[21] = tested on: Pseudomonas aeruginosa 99; assay: MIC, standard serial dilution method; type: cell-based; settings: P. aeruginosa 99; nutrient agar, 37°C, 18 hours
Method: as §1

[22] = tested on: kanamycin-resistant strains; settings: in words; cited from earlier work

SMILES: NC[C@@H]1O[C@H](O[C@H]2[C@@H](O)[C@H](O[C@@H]3[C@@H](O)[C@H](N)C[C@H](N)[C@H]3O[C@H]3O[C@H](CN)[C@@H](O)[C@H](O)[C@H]3N)O[C@@H]2CO)[C@H](N)[C@@H](O)[C@@H]1O [NM, neomycin, reference compound]
- Minimal inhibitory concentration [1]: > 100 mg/L
- Minimal inhibitory concentration [2]: 0.78 mg/L (≈ 1.27 µM)
- Minimal inhibitory concentration [3]: 100 mg/L (≈ 163 µM)
- Minimal inhibitory concentration [4]: 100 mg/L (≈ 163 µM)
- Minimal inhibitory concentration [5]: 0.78 mg/L (≈ 1.27 µM)
- Minimal inhibitory concentration [6]: 6.25 mg/L (≈ 10.2 µM)
- Minimal inhibitory concentration [7]: 0.78 mg/L (≈ 1.27 µM)
- Minimal inhibitory concentration [8]: 0.39 mg/L (≈ 0.635 µM)
- Minimal inhibitory concentration [9]: 25 mg/L (≈ 40.7 µM)
- Minimal inhibitory concentration (Escherichia coli NIHJ): 1.56 mg/L (≈ 2.54 µM)
- Minimal inhibitory concentration [10]: > 100 mg/L
- Minimal inhibitory concentration [11]: 0.39 mg/L (≈ 0.635 µM)
- Minimal inhibitory concentration [12]: < 0.20 mg/L
- Minimal inhibitory concentration [13]: 50 mg/L (≈ 81.3 µM)
- Minimal inhibitory concentration [14]: > 100 mg/L
- Minimal inhibitory concentration (Escherichia coli K-12): 1.56 mg/L (≈ 2.54 µM)
- Minimal inhibitory concentration [15]: 0.78 mg/L (≈ 1.27 µM)
- Minimal inhibitory concentration [16]: > 100 mg/L
- Minimal inhibitory concentration [17]: 3.12 mg/L (≈ 5.08 µM)
- Minimal inhibitory concentration (Salmonella typhosa T-63): 0.78 mg/L (≈ 1.27 µM)
- Minimal inhibitory concentration [18]: > 100 mg/L
- Minimal inhibitory concentration [19]: < 0.20 mg/L
- Minimal inhibitory concentration (Proteus rettgeri GN 466): 3.12 mg/L (≈ 5.08 µM)
- Minimal inhibitory concentration (Sarcina lutea PCI 1001): 0.78 mg/L (≈ 1.27 µM)
- Minimal inhibitory concentration [20]: 0.78 mg/L (≈ 1.27 µM)
- Minimal inhibitory concentration (Proteus rettgeri GN 311): 50 mg/L (≈ 81.3 µM)
- Minimal inhibitory concentration [21]: 50 mg/L (≈ 81.3 µM)

SMILES: NCC1CCC(N)C(OC2C(N)CC(N)C(OC3OC(CO)C(O)C(N)C3O)C2O)O1 (centres unmarked) [3', 4'-dideoxykanamycin B]
- activity against kanamycin-resistant strains [22]: actually effective

SMILES: NC[C@@H]1CC[C@@H](N)[C@@H](O[C@H]2[C@H](O)[C@@H](O)[C@H](N)C[C@@H]2N)O1 [3', 4'-dideoxyneamine]
- activity against kanamycin-resistant strains [22]: actually effective
